Assay results as given in US10611720B2, “Composition for preventing or treating hair loss including benzene diamine derivative” (UNIST(ULSAN NATIONAL INSTITUTE OF SCIENCE AND TECHNOLOGY), priority 2017, dated 2020).

Legend:
SOX-2 = SOX-2 expression in skin of hair loss mouse model, oral administration; assay type: in vivo; conditions: APP/PS/Tau mice, oral 100 μg/Kg twice a week, 2 months
Protocol: (§1) Accordingly, the present inventors examined whether expressions of hair growth stimulating factors, SOX-2 and SOX-9 were increased in hair loss animal models by the benzene diamine derivates of the present disclosure. In order to examine SOX-2 and SOX-9 expressions inside skin tissues, APP/PS/Tau mouse which is a hair loss-induced mouse model was selected as a control group and C57BL6 mouse was selected as a normal group, as in Example 5. An experimental group was prepared by orally administering the control group with the benzene diamine derivate at a concentration of 100 μg/Kg/0.1 ml using a zonde twice a week. 2 months later, incision of the skin was performed under local anesthesia, and the skin tissues were fixed in 4% paraformaldehyde solution for 24 hours, and fixed in a plastic mold with O.C.T. Compound (SAKURA, USA) for cryostat sectioning. […] Thereafter, the plate was put on a slide glass and covered with a cover slide, and stored in a dark acrylic box, and fluorescence imaging was observed under a confocal microscope (LSM710, Carl Zeiss, Germany) by 405/488/565 nm laser. […]

SOX-9 [1] = experiment: SOX-9 expression in skin of hair loss mouse model, oral administration; assay type: in vivo; conditions: APP/PS/Tau mice, oral 100 μg/Kg twice a week, 2 months
Protocol: as §1

[2] = system: APP/PS/Tau mouse (hair loss-induced mouse model); experiment: Hair growth change in hair loss mouse model, oral administration; assay type: in vivo; conditions: APP/PS/Tau mice, oral 100 μg/Kg twice a week for 2 months
Protocol: An experimental group was prepared by orally administering the control group with the benzene diamine derivate at a concentration of 100 μg/Kg/0.1 ml using a zonde twice a week, and then changes in appearance were observed.
In detail, APP/PS/Tau was purchased from Jackson lab (BAR HARBOR, USA), and APP/Tau female and APP/PSen1de9 purchased from Taconic (Hudson, USA) were cross-mated for 6 generations, and 4-month-old mouse models were obtained from F1. The mouse models were characterized by appearance of hair loss. The hair loss mouse models were divided into groups of 6 mice, and among the hair loss mouse models, the normal group and the control group were orally administered with a phosphate buffer carrier (PBS) for 2 months, and the experimental group was orally administered with 100 μl of N^1-(pyridin-2-ylmethyl)benzene-1,4-diamine (Compound 1) at a concentration of 100 μg/Kg twice a week for 2 months. Thereafter, changes in their appearance were compared.

SOX-9 [3] = experiment: SOX-9 expression in hDPC cells under oligomer Aβ (confocal fluorescence); assay type: cell-based, human; conditions: hDPCs, 2 nM oligomer Aβ + 25 μg/ml compound, 3 days; for SOX-9 expression (average fluorescence intensity): normal group 220±12, oligomer Aβ control 12±4; for SOX-9 expression (confocal imaging, in words): Example 4, compared with cells treated with oligomer Aβ
Protocol: (§2) As in Example 2, examination was performed by using oligomer Aβ as a cytotoxic material for hDPC.
(§3) At 3 days after treatment of the derivatives, the cells were fixed with 4% paraformaldehyde solution, and washed with PBS, and then fluorescence of ROI (relative fluorescence intensity) was measured at 488 nm by a confocal microscope (CONFOCAL, LSM710, Carl Zeiss, Germany) to examine SOX-9 and Cola17a1 expressions. As in Example 2, examination was performed by using oligomer Aβ as a cytotoxic material for hDPC.
(§4) At 3 days after treatment of the derivatives, the cells were fixed with 4% paraformaldehyde solution, and washed with PBS, and then fluorescence was measured at 488 nm/565 nm by a confocal microscope (CONFOCAL, LSM710, Carl Zeiss, Germany) to examine SOX-9 and Cola17a1 expressions. As in Example 2, examination was performed by using oligomer Aβ as a cytotoxic material for hDPC. […] COL17A1 expression was inhibited in the cells (control group C) treated with the cytotoxic oligomer Aβ, as compared with the normal group.

[4] = system: human hair follicle dermal papilla cells (hDPCs); experiment: Cell viability (MTT) of hDPCs under oligomer Aβ-induced cytotoxicity; conditions: hDPCs treated with 2 nM oligomer Aβ and 25 μg/ml compound, 72 hours, as compared with group (N)
Protocol: In order to examine effects of the benzene diamine derivates of the present disclosure on improvement of cell viability of hair follicular cells, human hair follicle dermal papilla cells (hDPCs) were treated with the benzene diamine derivates, and cell viability was examined. […] Therefore, examination was performed by using oligomer Aβ as a toxic material for hDPC.
In detail, 2×10^3 hDPCs were dispensed in a multi 96-well plate containing a DMEM medium supplemented with 10% FBS, and cultured in a CO2 incubator (Thermo Scientific) at 37° C., 5% CO2 for 24 hours. Thereafter, experiments were performed by using a normal group which was treated with only cells, a control group which was a group treated with 10 μl of 2 nM oligomer Aβ (oAβ) previously synthesized, and an experimental group which is prepared by treating the normal group with the same concentration of oligomer Aβ and 25 μg/ml of each benzene diamine derivate sample in water or DMSO. To examine cell viability at 72 hours after treatment of the cell line with the sample, 20 μl of 2% MTT solution was added to the cell culture medium. 3 hours later, to terminate the reaction, the culture medium was removed by aspiration, and 50 μl of DMSO was added. 30 minutes later, the reaction was terminated. Thereafter, OD value was measured at 570 nm by using a microplate reader (BioTek, Synergy HT, USA).

monomer/oligomer Aβ = experiment: Monomer/oligomer Aβ expression in skin of hair loss mouse model, oral administration; assay type: in vivo; conditions: APP/PS/Tau mice, oral 100 μg/Kg twice a week, 2 months
COL17A1 = COL17A1 expression in hDPC cells under oligomer Aβ (confocal fluorescence); assay type: cell-based, human; conditions: hDPCs, 2 nM oligomer Aβ + 25 μg/ml compound, 3 days; normal group 143±11, oligomer Aβ control 16±6
Protocol: as §2, §3, §4

SMILES	SOX-2 expression in skin (SOX-2)	SOX-9 expression in skin (SOX-9 [1])	hair loss (changes in appearance) [2]	SOX-9 expression (average fluorescence intensity) (SOX-9 [3]) [AFI]	cell viability [4] [%]	monomer/oligomer Aβ expression in skin (monomer/oligomer Aβ)	COL17A1 expression (average fluorescence intensity) (COL17A1) [AFI]	SOX-9 expression (confocal imaging, in words) (SOX-9 [3])
Nc1ccc(NCc2ccccn2)cc1 [Compound 1, N^1-(pyridin-2-ylmethyl)benzene-1,4-diamine]	remarkably expressed close to the normal group	remarkably increased	remarkable improvement in hair loss	134±23	82±2	decreased	152±13	–
c1ccc(CNc2ccc(N3CCOCC3)cc2)nc1 [Compound 2, 4-morpholino-N-(pyridin-2-ylmethyl)aniline]	–	–	–	187±23	87±5	–	234±31	–
CN(C)c1ccc(N)cc1 [Compound 3, N^1,N^1-dimethyl-1,4-phenylenediamine]	–	–	–	157±21	–	–	24±6	–
CC(=O)Nc1ccc(N(C)C)cc1 [Compound 4, N-(4-dimethylamino)phenyleneacetamide]	–	–	–	446±110	74±3	–	2±1	more strongly promoted the expression
CC(=O)Nc1ccc(N)cc1 [Compound 5, N-(4-aminophenyl)acetamide]	–	–	–	325±45	77±1	–	3±1	more strongly promoted the expression
CC(=O)Nc1ccc(NC(C)=O)cc1 [Compound 6, N,N-(1,4-phenylene)diacetate Amide]	–	–	–	267±56	86±1	–	226±34	–
